From US20230053649A1 (Cedilla Therapeutics, Inc., priority 2021, published 2023) come the findings set out here.

Assay [1] has as its system mesothelioma cell line NCI-H226. Put plainly: 72H TEAD Proliferation Assay (Cell Titer-Glo 2.0). The class given is cell-based. The settings on record: Homo sapiens, CTG 2.0, cell line not given in Table 1 (NCI-H226 TEAD-responsive, NCI-H28 non-responsive counter-screen). The protocol: 72H TEAD Proliferation Assay.
The effect of TEAD inhibition on cell proliferation was assayed using Cell Titer Glo (CTG) 2.0 to measure response in mesothelioma cell lines NCI-H226 (ATCC, #CRL-5826) and NCI-H28 (ATCC, #CRL-5820).
The 72H TEAD Proliferation assay utilizes Cell Titer-Glo 2.0 (Promega, #G9243) to measure the proliferation of cells in the presence or absence of compound. Cell Titer-Glo 2.0 determines the amount of viable cells by quantifying ATP (an indication of metabolically active cells). It utilizes the conversion of Luciferin to Oxyluciferin and a luminescent signal with the use of ATP to report the quantity of viable cells in culture. Within cells that are continually growing, ATP is being synthesized to meet their metabolic demands, meanwhile the opposite is true for cells that are dying or slowing down their proliferation and either no longer using ATP or are using less, respectively. The NF2-deficient NCI-H226 has been genetically validated as a cell line that is sensitive to TEAD inhibition. The NF2-wild type NCI-H28 has been genetically validated as a cell line that is not sensitive to TEAD inhibition and grows independently of TEAD activity.
Compounds were screened against the responsive NCI-H226 cell line to assess the compounds' ability to inhibit TEAD and cell growth. Compounds were also screened against the non-responsive NCI-H28 cell line to ascertain whether the inhibition of cell growth was due to inhibition of the target TEAD or whether the inhibition was due to off-target cytotoxicity.
Both NCI-H226 and NCI-H28 cells were grown at 37° C. with 5% CO2 using Growth Medium 1.
Anti-proliferative effect of compounds that inhibits TEAD activity measured by CTG
1) Assay ready plates (ARPs) were prepared by Echo acoustic liquid handler. For each compound, duplicate of 10-point half-log dilution series were dispensed in a 384-well microplate (Corning 3571).
3) Before use, ARPs were allowed to warm up to room temperature for 30 min.
4) ARPs were spun for 5 minutes at 1500RPM before removing the plate seals.
5) NCI-H226 or NCI-H28 cells were harvested from culture in Assay Medium 1 and the multidrop Combi reagent dispenser was used to seed cells at 500 cells per 50ul in each well of the ARPs and one Corning 3571 plate without compounds for Time 0 (TO) readout.
6) The TO plate was incubated for 2 hours at 37° C. with 5% CO2 to allow cells to settle, then the CTG Assay was performed.
7) All ARPs were incubated for 72 hours at 37° C. with 5% CO2, then the CTG Assay was performed for Time 72H (T72) readout.
8) CTG Assay: Bravo liquid handler (Agilent) was used to add 25ul of CTG 2.0 to all columns of the plate except for Column 24, which was used to subtract out the background. After CTG addition, plates were placed on shaker at 800RPM for 15 minutes at room temperature and kept in the dark. Luminescence was measured using EnVision multilabel plate reader with ultra-sensitive detection module.
9) Data Analysis: First background luminescence (no CTG wells) was subtracted from luminescence reading of all wells, then TO luminescence was subtracted from T72 luminescence. To compare anti-proliferative effect of compounds, GI50 was obtained by fitting dose response curves with nonlinear regression curve fit.
(In general: In ATP-based viability assays light output follows the ATP content of the culture.)

Assay [2] deals with T1, TEAD1 protein (YAP Binding Domain) (Homo sapiens, UniProt P28347). Put plainly: TEAD1 lipid pocket compound displacement assay (CDA, TR-FRET). The settings on record: read-out: CDA IC50, displacement of Cy5-probe from His-TEAD1, 60 minutes at room temperature. On the technique in general: TR-FRET usually uses a lanthanide donor and a delayed reading to cut background.
T1 sequence (P28347 167-426 limits assumed): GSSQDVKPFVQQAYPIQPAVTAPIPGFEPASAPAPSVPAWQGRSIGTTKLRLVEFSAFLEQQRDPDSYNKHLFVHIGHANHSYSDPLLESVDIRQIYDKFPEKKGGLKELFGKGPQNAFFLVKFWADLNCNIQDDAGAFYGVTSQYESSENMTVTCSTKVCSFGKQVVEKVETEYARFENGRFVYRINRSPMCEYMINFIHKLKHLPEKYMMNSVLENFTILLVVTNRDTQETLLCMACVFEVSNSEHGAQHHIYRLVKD
Experimental: Compound Displacement Assay.
(§1) A TEAD1 lipid pocket displacement assay was carried out according to the following protocol. Purified His-tagged TEAD1 protein (YAP Binding Domain) was pre-mixed with a Cy5-probe (Cy5-conjugated to a small molecule that binds in the TEAD1 lipid pocket) and Terbium-labeled anti-His antibody (Cisbio Cat 61HI2TLB). The binding of the Cy5-probe to anti-His-Tb/His-tag TEAD1 complex yielded a TR-FRET signal. […] After 60 minutes incubation at room temperature of compounds with the His-TEAD1/anti-His-Tb/Cy5-probe complex, the plate was read on a plate reader (BMG ClarioStar Cat 430-1300) using TR-FRET mode with wavelengths of 665 nm/620 nm. The potency of compounds as TEAD1 lipid pocket binders was determined by IC50 value generated using a non-linear 4 parameter curve fit.
The subject of assay [3] is EGFR-mutant NSCLC PC-9 cells. Put plainly: Apoptosis (caspase-3/7, IncuCyte) in combination with EGFR inhibitor Osimertinib. The class given is cell-based. The protocol:
Apoptosis was detected by CellEvent Caspase 3/7 Green ReadyProbes Reagent (ThermoFisher), a fluorogenic indicator of activated caspase-3/7. Cell death (apoptsis) and cell growth (phase confluence) over time were captured by IncuCyte live cell imaging system (Essen Bioscience) and quantified by IncuCyte S3 software (Essen Bioscience). Apoptotic Index was calculated by dividing apoptosis signal with phase confluence.

The target in assay [4] is T1, TEAD1 protein (YAP Binding Domain). Put plainly: biochemical.
Experimental: Compound Displacement Assay.
as §1

Bounds are passed on as bounds.

As to `COc1ccc2c(N3CCC(C(F)(F)F)CC3)nc(C(N)=O)cc2c1` [Compound 66], the GI50 (usually the concentration at which growth is held to half of that of the control) in assay [1] was 1000 to 5000 nM. Also, the IC50 (usually the concentration that gives 50% inhibition) in assay [2] was less than 150 nM.

The compound `COc1cc(N2CCC(C(F)(F)F)CC2)c2ncc(C(=O)N[C@H](C)CO)cc2c1` [Compound I-1, (R)-N-(1-hydroxypropan-2-yl)-6-methoxy-8-(4-(trifluoromethyl)piperidin-1-yl)quinoline-3-carboxamide] registered a GI50 in assay [1] of 500 to 1000 nM. The “Fold Change over DMSO at 48 hrs (apoptotic index)” value in assay [3] (I-1 (10 μM) alone) was 1.0; in assay [3] (Osimertinib (100 nM) + I-1 (0.37 μM), 24 h Osimertinib pre-treatment), 4.1; in assay [3] (Osimertinib (100 nM) + I-1 (1.1 μM), 24 h Osimertinib pre-treatment), 5.4; in assay [3] (Osimertinib (100 nM) + I-1 (10 μM), 24 h Osimertinib pre-treatment) it was 7.0. Further, the IC50 in assay [4] is 150 to 300 nM.

Regarding `O=C(O)c1ccc2c(N3CCC(C(F)(F)F)CC3)cccc2c1` [Compound I-57, 5-(4-(Trifluoromethyl)piperidin-1-yl)-2-naphthoic acid], the GI50 in assay [1] was greater than 5000 nM. The IC50 in assay [4] was 150 to 300 nM.

The compound `C[C@H](NC(=O)c1ccc2c(N3CCC(C(F)(F)F)CC3)cccc2c1)c1ccccn1` [Compound I-58, (S)-N-(1-(pyridin-2-yl)ethyl)-5-(4-(trifluoromethyl)piperidin-1-yl)-2-naphthamide] had a GI50 in assay [1] of no more than 500 nM. Also, the IC50 in assay [4] is less than 150 nM.

For the compound `C[C@H](CO)NC(=O)c1ccc2c(N3CCC(C(F)(F)F)CC3)cccc2c1` [Compound I-59, (R)-N-(1-hydroxypropan-2-yl)-5-(4-(trifluoromethyl)piperidin-1-yl)-2-naphthamide], the GI50 in assay [1] is no more than 500 nM. The same compound showed an IC50 in assay [4] of 150 to 300 nM.

In assay [1], `C[C@H](CO)NC(=O)c1cnc2c(N3CCC(C(F)(F)F)CC3)cccc2c1` [Compound I-60, (R)-N-(1-hydroxypropan-2-yl)-8-(4-(trifluoromethyl)piperidin-1-yl)quinoline-3-carboxamide] displayed a concentration for 50% growth inhibition (GI50) of 500 to 1000 nM. For the same compound, the IC50 in assay [4] lay in the range of 150 to 300 nM.

For `COC[C@H](C)NC(=O)c1cnc2c(N3CCC(C(F)(F)F)CC3)cccc2c1` [Compound I-61, (S)-N-(1-methoxypropan-2-yl)-8-(4-(trifluoromethyl)piperidin-1-yl)quinoline-3-carboxamide], the GI50 in assay [1] fell in the range of 500 to 1000 nM. This compound registered an IC50 in assay [4] of 150 to 300 nM.

In assay [1], `CCOc1cc2cc(C(=O)N[C@H](C)CO)ccc2c(N2CCC(C(F)(F)F)CC2)n1` [Compound I-62, (R)-3-ethoxy-N-(1-hydroxypropan-2-yl)-1-(4-(trifluoromethyl)piperidin-1-yl)isoquinoline-6-carboxamide] gave a GI50 of no more than 500 nM. The compound also had an IC50 in assay [4] of less than 150 nM.

In turn, `C[C@H](CO)NC(=O)c1ccc2c(N3CCC(C(F)(F)F)CC3)nccc2c1` [Compound I-63, (R)-N-(1-hydroxypropan-2-yl)-1-(4-(trifluoromethyl)piperidin-1-yl)isoquinoline-6-carboxamide] yielded a GI50 in assay [1] of 1000 to 5000 nM. The IC50 in assay [4] lay in the range of 300 to 500 nM.

In turn, `COc1cc2cc(C(=O)N[C@@H](C)c3ccccn3)ccc2c(N2CCC(C(F)(F)F)CC2)n1` [Compound I-64, (S)-3-methoxy-N-(1-(pyridin-2-yl)ethyl)-1-(4-(trifluoromethyl)piperidin-1-yl)isoquinoline-6-carboxamide] gave a GI50 in assay [1] of no more than 500 nM. Also, the IC50 in assay [4] was less than 150 nM.

In the case of `CC[C@H](CO)NC(=O)c1ccc2c(N3CCC(C(F)(F)F)CC3)nc(OC)cc2c1` [Compound I-65, (R)-N-(1-hydroxybutan-2-yl)-3-methoxy-1-(4-(trifluoromethyl)piperidin-1-yl)isoquinoline-6-carboxamide], the GI50 in assay [1] was no more than 500 nM. Moreover, the IC50 in assay [4] was less than 150 nM.

For the compound `C#Cc1ccc(-c2cccc3cc(C(=O)N[C@@H](C)c4ccccn4)cnc23)cc1` [I′-29, (S)-8-(4-ethynylphenyl)-N-(1-(pyridin-2-yl)ethyl)quinoline-3-carboxamide], the GI50 in assay [1] was in the range of 1000 to 5000 nM. This compound also returned an IC50 in assay [4] of less than 150 nM.

`C[C@H](NC(=O)c1cnc2c(-c3ccc(C#N)cc3)cccc2c1)c1ccccn1` [I′-32, (S)-8-(4-cyanophenyl)-N-(1-(pyridin-2-yl)ethyl)quinoline-3-carboxamide] had a GI50 in assay [1] of 1000 to 5000 nM. In addition, in assay [4], the IC50 was in the range of 300 to 500 nM.

In turn, `COc1cc(-c2ccc(C(C)(C)C)cc2)c2ncc(C(=O)N[C@H](C)CO)cc2c1` [I′-33, (R)-8-(4-(tert-butyl)phenyl)-N-(1-hydroxypropan-2-yl)-6-methoxyquinoline-3-carboxamide] yielded a GI50 in assay [1] of 500 to 1000 nM. The IC50 in assay [4] was in the range of 150 to 300 nM.

In assay [1], `COc1cc(-c2ccc(C(C)(C)O)cc2)c2ncc(C(=O)N[C@H](C)CO)cc2c1` [I′-34, (R)-N-(1-hydroxypropan-2-yl)-8-(4-(2-hydroxypropan-2-yl)phenyl)-6-methoxyquinoline-3-carboxamide] displayed a GI50 greater than 5000 nM. Besides, in assay [4], the IC50 fell in the range of 300 to 500 nM.

`CC[C@H](CO)NC(=O)c1ccc2c(-c3ccc(C(F)(F)F)cc3)nc(OC)cc2c1` [I″-53, (R)-N-(1-hydroxybutan-2-yl)-3-methoxy-1-(4-(trifluoromethyl)phenyl)isoquinoline-6-carboxamide] had a GI50 in assay [1] of no more than 500 nM. The compound also came in with an IC50 in assay [4] of less than 150 nM.

Compound `COC[C@H](C)NC(=O)c1ccc2c(-c3ccc(C(F)(F)F)cc3)nc(OC)cc2c1` [I″-54, (S)-3-Methoxy-N-(1-methoxypropan-2-yl)-1-(4-(trifluoromethyl)phenyl)isoquinoline-6-carboxamide] registered a GI50 in assay [1] of no more than 500 nM. The IC50 in assay [4] was less than 150 nM.

For the compound `COc1cc2cc(C(=O)N[C@@H](C)c3ccccn3)ccc2c(-c2ccc(C(F)(F)F)cc2)n1` [I″-55, (S)-3-methoxy-N-(1-(pyridin-2-yl)ethyl)-1-(4-(trifluoromethyl)phenyl)isoquinoline-6-carboxamide], the GI50 in assay [1] was no more than 500 nM. In assay [4], the IC50 was less than 150 nM.

The compound `C[C@H](CO)NC(=O)c1ccc2c(-c3ccc(C(F)(F)F)cc3)[nH]c(=O)cc2c1` [I″-56] returned a GI50 in assay [1] greater than 5000 nM. This compound gave an IC50 in assay [4] greater than 500 nM.

`C=CC(=O)Nc1cc(Nc2nccc(-c3cn(C)c4ccccc34)n2)c(OC)cc1N(C)CCN(C)C` [Osimertinib, reference compound]: the “Fold Change over DMSO at 48 hrs (apoptotic index)” value in assay [3] (Osimertinib (100 nM) alone) was found to be 2.6.
